Data reported in PubChem BioAssay (NCI).
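These data come from cells grown in 96-well plates and exposed to compound for 48 hours at five concentrations. TGI: total growth inhibition.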

Legend:
Test in all cases: growth of human tumour cells (NCI), 48 h
CAKI-1 renal = test system: CAKI-1 renal
LOX IMVI melanoma = test system: LOX IMVI melanoma
RPMI-8226 leukemia = test system: RPMI-8226 leukemia
UACC-257 melanoma = test system: UACC-257 melanoma
OVCAR-5 ovarian = test system: OVCAR-5 ovarian
T-47D breast = test system: T-47D breast
UACC-62 melanoma = test system: UACC-62 melanoma
SW-620 colon = test system: SW-620 colon
SNB-75 CNS = test system: SNB-75 CNS
SK-OV-3 ovarian = test system: SK-OV-3 ovarian
A498 renal = test system: A498 renal
TK-10 renal = test system: TK-10 renal
OVCAR-3 ovarian = test system: OVCAR-3 ovarian
OVCAR-4 ovarian = test system: OVCAR-4 ovarian
K-562 leukemia = test system: K-562 leukemia
SNB-19 CNS = test system: SNB-19 CNS
IGROV1 ovarian = test system: IGROV1 ovarian
NCI/ADR-RES ovarian = test system: NCI/ADR-RES ovarian
HOP-62 NSCLC = test system: HOP-62 NSCLC
NCI-H226 lung = test system: NCI-H226 lung

SMILES | TGI (CAKI-1 renal) [µM] | TGI (LOX IMVI melanoma) [µM] | TGI (RPMI-8226 leukemia) [µM] | TGI (UACC-257 melanoma) [µM] | TGI (OVCAR-5 ovarian) [µM] | TGI (T-47D breast) [µM] | TGI (UACC-62 melanoma) [µM] | TGI (SW-620 colon) [µM] | TGI (SNB-75 CNS) [µM] | TGI (SK-OV-3 ovarian) [µM] | TGI (A498 renal) [µM] | TGI (TK-10 renal) [µM] | TGI (OVCAR-3 ovarian) [µM] | TGI (OVCAR-4 ovarian) [µM] | TGI (K-562 leukemia) [µM] | TGI (SNB-19 CNS) [µM] | TGI (IGROV1 ovarian) [µM] | TGI (NCI/ADR-RES ovarian) [µM] | TGI (HOP-62 NSCLC) [µM] | TGI (NCI-H226 lung) [µM]
CC(C)(C)n1[nH]c(=O)n(C(C)(C)C)c1=O | > 100 | > 100 | > 100 | > 100 | > 100 | > 100 | > 100 | > 100 | > 100 | > 100 | > 100 | > 100 | > 100 | > 100 | > 100 | > 100 |  |  |  | 
C/C1=C\[C@@H](C)C[C@@H](C)OC(=O)[C@@H](C)NC(=O)[C@H](Cc2ccc(O)c(Br)c2)N(C)C(=O)CNC(=O)[C@H](C)C1 |  | < 0.01 | 56.1 | 27.2 | > 100 |  | > 55.1 | > 100 | < 0.01 | 5.26 | < 0.021 | 0.26 | 0.0243 |  | > 100 | > 100 | 0.033 | > 57 |  | 
CC(C)(C)OC(=O)NCC(c1c[nH]c2cc(Br)ccc12)c1c[nH]c2cc(Br)ccc12 | 91.5 | 32.2 | > 100 | 44.6 | 31.4 | 35.2 | 30.1 | > 100 | 49.6 | 29.5 |  | 35.9 | 29.1 | 32.9 | > 100 | 46.2 | 29.4 | 35.9 | 33.2 | 34.5
O=S(=O)(O)c1ccc(N=Nc2ccc(N=Nc3c(O)ccc4ccc(S(=O)(=O)O)cc34)cc2)cc1 | > 100 |  | > 100 | > 100 | > 100 | > 100 | > 100 | > 100 |  | > 100 |  | > 100 | > 100 | > 100 | > 100 | > 100 | > 100 | > 100 | > 100 | > 100
OC(c1cc2ccccc2[nH]1)C(O)(c1cc2ccccc2[nH]1)c1cc2ccccc2[nH]1 (stereo unspecified) | 51.9 | 41.8 | > 245 | 64.6 | 102 |  | 23.2 | 43.1 |  | 79.1 |  | 90.3 | 9.13 |  | > 245 | > 245 | 47.9 |  | 48.3 | 40.4
CC1=C(C(=O)O)N2C(=O)[C@@H](NC(=O)C(c3ccccc3)N3CSC(=S)N(C(C)C)C3)C2SC1 (stereo partly specified) | > 100 | > 100 | > 100 | > 100 | > 100 |  | > 100 |  | > 100 | > 100 | > 100 | > 100 | > 100 | > 100 | > 100 | > 100 | > 100 |  | > 100 | 
CC1=C(O)C(=O)C2C(=O)C1C(C)C2c1ccccc1 (stereo unspecified) | > 100 | > 100 | > 100 | > 100 | > 100 |  | > 100 | > 100 | > 100 | > 100 | > 100 | > 100 | > 100 | > 100 | > 100 | > 100 | > 100 |  | > 100 | > 100
